PubChem BioAssay (NCI)
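Five compound concentrations were applied to cells in 96-well plates for 48 hours; endpoints were derived by simple linear interpolation of the resulting dose-response curve. At the TGI there is no net growth.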

What was measured:
Assay in all cases: NCI anticancer screen, dose series, 48 h
NCI/ADR-RES ovarian = tested on: NCI/ADR-RES ovarian
SF-539 CNS = tested on: SF-539 CNS
COLO 205 colon = tested on: COLO 205 colon
786-0 renal = tested on: 786-0 renal
UACC-62 melanoma = tested on: UACC-62 melanoma
HS 578T breast = tested on: HS 578T breast
HCT-116 colon = tested on: HCT-116 colon
NCI-H460 lung = tested on: NCI-H460 lung
SF-268 CNS = tested on: SF-268 CNS
MCF7 breast = tested on: MCF7 breast
DU-145 prostate = tested on: DU-145 prostate
A498 renal = tested on: A498 renal
RPMI-8226 leukemia = tested on: RPMI-8226 leukemia
HOP-62 NSCLC = tested on: HOP-62 NSCLC
MOLT-4 leukemia = tested on: MOLT-4 leukemia
SK-MEL-28 melanoma = tested on: SK-MEL-28 melanoma
HL-60(TB) leukemia = tested on: HL-60(TB) leukemia
BT-549 breast = tested on: BT-549 breast
M14 melanoma = tested on: M14 melanoma
UACC-257 melanoma = tested on: UACC-257 melanoma
UO-31 renal = tested on: UO-31 renal
SK-MEL-5 melanoma = tested on: SK-MEL-5 melanoma
A549 NSCLC = tested on: A549 NSCLC
MDA-N = tested on: MDA-N
OVCAR-3 ovarian = tested on: OVCAR-3 ovarian
CCRF-CEM leukemia = tested on: CCRF-CEM leukemia
MDA-MB-435 = tested on: MDA-MB-435
RXF 393 renal = tested on: RXF 393 renal
SN12C renal = tested on: SN12C renal
SNB-75 CNS = tested on: SNB-75 CNS
HT29 colon = tested on: HT29 colon
OVCAR-8 ovarian = tested on: OVCAR-8 ovarian
K-562 leukemia = tested on: K-562 leukemia
NCI-H23 lung = tested on: NCI-H23 lung
TK-10 renal = tested on: TK-10 renal
HCT-15 colon = tested on: HCT-15 colon
IGROV1 ovarian = tested on: IGROV1 ovarian
EKVX NSCLC = tested on: EKVX NSCLC
PC-3 prostate = tested on: PC-3 prostate
CAKI-1 renal = tested on: CAKI-1 renal
MDA-MB-231 breast = tested on: MDA-MB-231 breast
NCI-H226 lung = tested on: NCI-H226 lung
OVCAR-5 ovarian = tested on: OVCAR-5 ovarian
SNB-19 CNS = tested on: SNB-19 CNS
SR leukemia = tested on: SR leukemia
KM12 colon = tested on: KM12 colon
U251 CNS = tested on: U251 CNS
T-47D breast = tested on: T-47D breast
ACHN renal = tested on: ACHN renal
SW-620 colon = tested on: SW-620 colon
SF-295 CNS = tested on: SF-295 CNS
SK-MEL-2 melanoma = tested on: SK-MEL-2 melanoma
LOX IMVI melanoma = tested on: LOX IMVI melanoma
OVCAR-4 ovarian = tested on: OVCAR-4 ovarian
HOP-92 NSCLC = tested on: HOP-92 NSCLC
SK-OV-3 ovarian = tested on: SK-OV-3 ovarian
NCI-H522 lung = tested on: NCI-H522 lung
HCC-2998 colon = tested on: HCC-2998 colon
MALME-3M melanoma = tested on: MALME-3M melanoma

## Cn1ncc2[nH]cnc2c1=S
NCI/ADR-RES ovarian
  TGI: > 100 µM
SF-539 CNS
  TGI: > 100 µM
COLO 205 colon
  TGI: > 100 µM
786-0 renal
  TGI: > 100 µM
UACC-62 melanoma
  TGI: > 100 µM
HS 578T breast
  TGI: > 100 µM
HCT-116 colon
  TGI: > 100 µM
NCI-H460 lung
  TGI: > 100 µM
SF-268 CNS
  TGI: > 100 µM
MCF7 breast
  TGI: > 100 µM
DU-145 prostate
  TGI: > 100 µM
A498 renal
  TGI: > 100 µM
RPMI-8226 leukemia
  TGI: > 100 µM
HOP-62 NSCLC
  TGI: > 100 µM
MOLT-4 leukemia
  TGI: > 100 µM
SK-MEL-28 melanoma
  TGI: > 100 µM
HL-60(TB) leukemia
  TGI: 24.6 µM
BT-549 breast
  TGI: > 100 µM
M14 melanoma
  TGI: > 100 µM
UACC-257 melanoma
  TGI: > 100 µM
UO-31 renal
  TGI: > 100 µM
SK-MEL-5 melanoma
  TGI: > 100 µM
A549 NSCLC
  TGI: > 100 µM
MDA-N
  TGI: > 100 µM
OVCAR-3 ovarian
  TGI: > 100 µM
CCRF-CEM leukemia
  TGI: 66.8 µM
MDA-MB-435
  TGI: > 100 µM
RXF 393 renal
  TGI: > 100 µM
SN12C renal
  TGI: > 100 µM
SNB-75 CNS
  TGI: > 100 µM
HT29 colon
  TGI: > 100 µM
OVCAR-8 ovarian
  TGI: > 100 µM
K-562 leukemia
  TGI: > 100 µM
NCI-H23 lung
  TGI: > 100 µM
TK-10 renal
  TGI: > 100 µM
HCT-15 colon
  TGI: > 100 µM
IGROV1 ovarian
  TGI: > 100 µM
EKVX NSCLC
  TGI: > 100 µM
PC-3 prostate
  TGI: > 100 µM
CAKI-1 renal
  TGI: > 100 µM
MDA-MB-231 breast
  TGI: > 100 µM
NCI-H226 lung
  TGI: > 100 µM
OVCAR-5 ovarian
  TGI: > 100 µM
SNB-19 CNS
  TGI: > 100 µM
SR leukemia
  TGI: > 100 µM
KM12 colon
  TGI: > 100 µM
U251 CNS
  TGI: > 100 µM
T-47D breast
  TGI: > 100 µM
ACHN renal
  TGI: > 100 µM
SW-620 colon
  TGI: > 100 µM
SF-295 CNS
  TGI: > 100 µM
SK-MEL-2 melanoma
  TGI: > 100 µM

## COc1cc2c(cc1O)NC(=S)[C@@H]1CCCN1C2=O
NCI/ADR-RES ovarian
  TGI: > 100 µM
SF-539 CNS
  TGI: > 100 µM
COLO 205 colon
  TGI: > 100 µM
786-0 renal
  TGI: > 100 µM
UACC-62 melanoma
  TGI: > 100 µM
HS 578T breast
  TGI: > 100 µM
HCT-116 colon
  TGI: > 100 µM
NCI-H460 lung
  TGI: > 100 µM
SF-268 CNS
  TGI: > 100 µM
MCF7 breast
  TGI: > 100 µM
DU-145 prostate
  TGI: > 100 µM
A498 renal
  TGI: > 100 µM
RPMI-8226 leukemia
  TGI: > 100 µM
HOP-62 NSCLC
  TGI: > 100 µM
MOLT-4 leukemia
  TGI: > 100 µM
SK-MEL-28 melanoma
  TGI: > 100 µM
BT-549 breast
  TGI: > 100 µM
M14 melanoma
  TGI: > 100 µM
LOX IMVI melanoma
  TGI: > 100 µM
UACC-257 melanoma
  TGI: > 100 µM
UO-31 renal
  TGI: > 100 µM
SK-MEL-5 melanoma
  TGI: > 100 µM
A549 NSCLC
  TGI: > 100 µM
MDA-N
  TGI: > 100 µM
OVCAR-3 ovarian
  TGI: > 100 µM
CCRF-CEM leukemia
  TGI: > 100 µM
OVCAR-4 ovarian
  TGI: > 100 µM
MDA-MB-435
  TGI: > 100 µM
HOP-92 NSCLC
  TGI: > 100 µM
RXF 393 renal
  TGI: > 100 µM
SN12C renal
  TGI: > 100 µM
SNB-75 CNS
  TGI: > 100 µM
HT29 colon
  TGI: > 100 µM
OVCAR-8 ovarian
  TGI: > 100 µM
K-562 leukemia
  TGI: > 100 µM
NCI-H23 lung
  TGI: > 100 µM
SK-OV-3 ovarian
  TGI: > 100 µM
TK-10 renal
  TGI: > 100 µM
HCT-15 colon
  TGI: > 100 µM
IGROV1 ovarian
  TGI: > 100 µM
EKVX NSCLC
  TGI: > 100 µM
PC-3 prostate
  TGI: > 100 µM
CAKI-1 renal
  TGI: > 100 µM
NCI-H522 lung
  TGI: > 100 µM
MDA-MB-231 breast
  TGI: > 100 µM
NCI-H226 lung
  TGI: > 100 µM
HCC-2998 colon
  TGI: > 100 µM
OVCAR-5 ovarian
  TGI: > 100 µM
SNB-19 CNS
  TGI: > 100 µM
MALME-3M melanoma
  TGI: > 100 µM
SR leukemia
  TGI: > 100 µM
KM12 colon
  TGI: > 100 µM
U251 CNS
  TGI: > 100 µM
T-47D breast
  TGI: > 100 µM
ACHN renal
  TGI: > 100 µM
SW-620 colon
  TGI: > 100 µM
SF-295 CNS
  TGI: > 100 µM
SK-MEL-2 melanoma
  TGI: > 100 µM
